One assay deals with CD45 (Homo sapiens) (UniProt P08575). The settings on record: cited from earlier work.
In assay [1] the target is T1, NKG2D (Homo sapiens, UniProt P26718).
T1 construct: the extracellular lectin-type domain was fused at the N-terminus with a human IgG1 Fc domain; purchased R&D Systems, Inc., Minneapolis, MN
T1 sequence (P26718 73-216 limits assumed): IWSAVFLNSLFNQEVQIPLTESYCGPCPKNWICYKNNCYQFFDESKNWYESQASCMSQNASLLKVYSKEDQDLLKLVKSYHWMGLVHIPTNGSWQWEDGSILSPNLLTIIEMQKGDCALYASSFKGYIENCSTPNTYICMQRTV
Briefly: inhibition of binding of svH1C to NKG2D. The settings on record: added with 2 μM svH1C; PBS/0.05% Tween-20; average of single values from three separate assays; fetuin 5, 10, 30 μM; sialyllactose 12, 20, 40 μM. On the procedure:
(§1) Isothermal microcalorimetry was performed by TA Instruments Professional Services (New Castle, DE) by titrating 10 μM NKG2D (monomer concentration) (R&D Systems, Inc., Minneapolis, MN) with 100 μM svH1C in 50 mM Tris-HCl, pH 7.5, 150 mM NaCl, 0.1 mM EDTA. Recombinant human receptors were obtained from R&D Systems as chimeric proteins. NKG2D is a type II transmembrane protein and the extracellular lectin-type domain was fused at the N-terminus with a human IgG1 Fc domain. Recombinant siglecs contained a C-terminal IgG1 Fc domain or a His6–10 tag. The lyophilized proteins were reconstituted in phosphate-buffered saline, pH 7.2 (PBS), to 100 μg/mL. The Fc-chimeric proteins were bound to protein A/G-coated wells of microtiter plates (Pierce Biotechnology). His-tagged proteins were bound in Nickel-coated plates (Pierce Biotechnology). Sufficient proteins were added to wells to saturate the binding capacity of the wells. After a wash to remove unbound receptor, wells were blocked with 1% gelatin in wash buffer. […] Absorbance was measured at 450 nm and converted to the amount of streptavidin-peroxidase bound with the specific activity of the conjugate determined under the conditions of the assay. […]
Fig 4 Binding of svH1C to NKG2D. (A) The amount of bound peptide was measured after extensive washing with PBS containing 0.05% Tween-20. […]

The test system of assay [2] is siglecs. The assay is described as follows: solid-phase binding of biotinylated tetravalent peptides to siglecs. More on the design: species or system human. The note with it: biotinylated peptides 2 μM. On the procedure:
as §1, with “buffer. Wash buffers were either 10 mM phosphate, pH 7.2; 10 mM HEPES, pH 7.4; or 50 mM Tris-HCl, pH.7.5, each in 150 mM NaCl containing 0.05% Tween-20. Biotinylated peptides were prepared as 2 μM solutions in the wash buffer and 50 μL (100 pmoles) were added to each well and incubated at room temperature for one hour. After four washes with 350 μL buffer containing 0.05% Tween-20, each assay was incubated with 50 μL of 1 μg/mL streptavidin-peroxidase (Sigma-Aldrich, St. Louis, MO).” for “buffer.”
MAA is a mixture of M. amurensis leukoagglutinin (MAL) and M. amurensis hemagglutinin (MAH), both of which along with SNA1 bind preferentially to terminal Neu5Ac-Gal- sequences on complex glycans. Binding of the peptide to several lectins specific for monosaccharides was not detected. […]

For assay [3], the system named is lectins that bind monosaccharides. The note with it: Neu5Ac, Gal, GalNAc or fucose lectins; ref [29],[30]; cited from earlier work. The source says:
We initially identified several sequences of amino acids that bound to specific plant lectins by screening phage display libraries. Sequences were further refined by in silico modeling of docking of a peptide into the sugar binding site of the crystal structures of lectins. These studies predicted that several short peptide sequences, 5 to 8 amino acids in length, would have significant affinity to lectins chosen as analogs of cell-surface receptors. […] MAA is a mixture of M. amurensis leukoagglutinin (MAL) and M. amurensis hemagglutinin (MAH), both of which along with SNA1 bind preferentially to terminal Neu5Ac-Gal- sequences on complex glycans. Binding of the peptide to several lectins specific for monosaccharides was not detected. We then assayed binding of svH1C to several siglecs, which comprise a family of cell-surface receptors that are specific for Neu5Ac-Gal/GalNAc- sequ ...

The test system of a further assay is Siglec-2. The note with it: ref Kelm et al. [68], cited from earlier work. From the text: Most siglecs are inhibitory receptors containing an ITIM [9–12] and express full activity when a ligand is bound. As documented with Siglec-2 on B cells, a functional ligand binding site is required for tyrosine phosphorylation, recruitment of the phosphatase SHP-1, and inhibition of B cell activation.

The next assay has as its system plant lectins. The note with it: ref [29]; cited from earlier work. The source says:
NKG2D is a homodimeric, type II receptor whose recognized ligands are cell-surface proteins MICA and MICB, which are major histocompatibility complex class I homologs. Other polypeptide ligands include ULBP, Rae-1 and H60 [26]. Extensive studies of binding of MICA and MICB [24–26] have shown that each homodimer binds a single ligand at the interface of the subunits. Each subunit of NKG2D also contains a lectin domain that binds glycans with specificity for Neu5Ac(α2,3)Gal. […] Binding was inhibited by fet ...

The test system of assay [4] is siglecs. Briefly: inhibition of binding of svH1C to siglecs. More on the design: species or system human. The settings on record: fetuin 10 μM or 30 μM; average of single values in two assays. On the procedure:
as §1
Fig 3 Binding of svH1C to lectin-type receptors. […] SEM was determined for six assays from four independent experiments. […]

For assay [5], the target named is NKG2D. The note with it: approximately; ref [24]–[26]; cited from earlier work. On the procedure: NKG2D lacks a signaling motif in its cytoplasmic domain and functions as an activating receptor in association with adaptor proteins, DAP10 and DAP12 [75]. In addition to NKG2D, NK cells express other activating cytotoxicity receptors such as NKp30, NKp44 and NKp46. These receptors bind to tandemly multivalent heparan sulfate/heparin sequences with KD values of 0.3 to 2 μM [76]. Similarly to NKG2D, NKp46 also binds multivalent sialyl-Lewis^X with a KD of approximately 0.6 μM [77]. The native in vivo ligands for NKG2D are divergent proteins, MIC-A/B, ULBP, Rae-1 or H60, which bind the rec ...

Assay [6] deals with T2, recombinant human NKG2D, Fc chimera (human, UniProt P26718 73-216).
T2 construct: NKG2D, human, extracellular lectin-type domain; Type II transmembrane protein; source: bought: R&D Systems; not shown: Fc (human IgG1), N-terminal, kept
T2 sequence (looked up): T1 sequence (P26718 73-216 limits assumed)
The assay is described as follows: ELISA; inhibition: fetuin (5, 10 or 30 μM) added along with 2 μM biotinylated svH1C to immobilised receptor; PBS with 0.05% Tween-20.

For orientation: Kd means the concentration at which binding is half-saturated. What is called IC50 is the midpoint of a concentration-inhibition curve.

“Also recorded” adds a separate entry of the source. Where no end group is shown, it is not given here. The star is where a group is joined. Biotin = O=C1N[C@H]2[C@H](CS[C@H]2CCCCC(=O)*)N1

Chain of CD45 (Homo sapiens) (P08575 26-577): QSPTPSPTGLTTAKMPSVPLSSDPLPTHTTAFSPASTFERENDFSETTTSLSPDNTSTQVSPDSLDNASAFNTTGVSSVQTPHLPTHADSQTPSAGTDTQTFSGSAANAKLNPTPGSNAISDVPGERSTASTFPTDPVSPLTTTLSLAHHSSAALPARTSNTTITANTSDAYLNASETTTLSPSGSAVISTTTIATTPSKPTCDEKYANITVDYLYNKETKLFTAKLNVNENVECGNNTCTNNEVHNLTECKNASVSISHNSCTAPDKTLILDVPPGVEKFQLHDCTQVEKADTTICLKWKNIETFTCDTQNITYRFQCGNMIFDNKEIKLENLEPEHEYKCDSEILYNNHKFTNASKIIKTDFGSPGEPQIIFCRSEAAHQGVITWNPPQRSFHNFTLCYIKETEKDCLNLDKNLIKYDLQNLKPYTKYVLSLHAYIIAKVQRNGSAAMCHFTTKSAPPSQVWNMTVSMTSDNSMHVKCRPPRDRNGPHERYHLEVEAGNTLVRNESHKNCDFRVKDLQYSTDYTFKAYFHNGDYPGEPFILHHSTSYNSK

Regarding Siglec-2 (CD22) (from UniProt P20273), the Kd with CD45 (Homo sapiens) is 117 µM.
sialyllactose [reference compound] showed an IC50 on NKG2D [1] of about 18 µM.
As for “[(VGGGSGGGS)2K]2K-ε-biotinyl-K-NH2 [peptide used as a negative control, reference compound]”, the “binding of biotinylated tetravalent peptides to siglecs” value with siglecs [2] is given as “no binding”.
As for HPSLK [sv6B], in [3], the “avidity to lectins that bind monosaccharides, relative to natural ligands” value is listed as “several orders of magnitude greater than their natural ligands”. Further, the “binding of biotinylated tetravalent peptides to siglecs” value with siglecs [2] is “also bound to siglecs”.
On to `CO[C@]1(C(=O)O)C[C@H](O)[C@@H](NC(C)=O)[C@H]([C@H](O)[C@H](O)CNC(=O)c2ccc(-c3ccccc3)cc2)O1` [BPC-Neu5Ac], for which the IC50 with Siglec-2 (after cells were treated with neuraminidase) was 4 µM. For the same molecule, the “tyrosine phosphorylation and inhibitory activity of Siglec-2” value in the assay with Siglec-2 is “reduced tyrosine phosphorylation and attenuated the receptor’s inhibitory activity”.
In the case of “fetuin: fetal bovine fetuin (purity, 88%; cat. no. 341506, Calbiochem)”, the “competition with svH1C for binding to plant lectins” value in the assay with plant lectins is “effectively competed”. In addition, in the assay on siglecs [4], the “inhibition of binding of svH1C to siglecs by fetuin” value is given as “inhibited; also recorded: as effective an inhibitor of binding of svH1C to NKG2D as it was of the binding of the peptide to siglecs”.
As for “digestion of fetuin with neuraminidase: fetuin digested with neuraminidase”, the “competition with svH1C for binding to plant lectins” value with plant lectins is “nearly eliminated its ability to inhibit binding”.

B1: MIC-A/B: native in vivo ligands for NKG2D; major histocompatibility complex class I homologs (protein, UniProt Q29983 24-383; Q29980 23-383, looked up)
MHC class I … 1: EPHSLRYNLTVLSWDGSVQSGFLTEVHLDGQPFLRCDRQKCRAKPQGQWAEDVLGNKTWDRETRDLTGNGKDLRMTLAHIKDQKEGLHSLQEIRVCEIHEDNSTRSSQHFYYDGELFLSQNLETKEWTMPQSSRAQTLAMNVRNFLKEDAMKTKTHYHAMHADCLQELRRYLKSGVVLRRTVPPMVNVTRSEASEGNITVTCRASGFYPWNITLSWRQDGVSLSHDTQQWGDVLPDGNGTYQTWVATRICQGEEQRFTCYMEHSGNHSTHPVPSGKVLVLQSHWQTFHVSAVAAAAIFVIIIFYVRCCKKKTSAAEGPELVSLQVLDQHPVGTSDHRDATQLGFQPLMSDLGSTGSTEGA
MHC class I … 2: AEPHSLRYNLMVLSQDGSVQSGFLAEGHLDGQPFLRYDRQKRRAKPQGQWAENVLGAKTWDTETEDLTENGQDLRRTLTHIKDQKGGLHSLQEIRVCEIHEDSSTRGSRHFYYDGELFLSQNLETQESTVPQSSRAQTLAMNVTNFWKEDAMKTKTHYRAMQADCLQKLQRYLKSGVAIRRTVPPMVNVTCSEVSEGNITVTCRASSFYPRNITLTWRQDGVSLSHNTQQWGDVLPDGNGTYQTWVATRIRQGEEQRFTCYMEHSGNHGTHPVPSGKALVLQSQRTDFPYVSAAMPCFVIIIILCVPCCKKKTSAAEGPELVSLQVLDQHPVGTGDHRDAAQLGFQPLMSATGSTGSTEGT
As for B1, the Kd on NKG2D [5] is about 1 µM.

B2: fetal bovine fetuin (natural protein, UniProt P12763 19-359, looked up)
chain: IPLDPVAGYKEPACDDPDTEQAALAAVDYINKHLPRGYKHTLNQIDSVKVWPRRPTGEVYDIEIDTLETTCHVLDPTPLANCSVRQQTQHAVEGDCDIHVLKQDGQFSVLFTKCDSSPDSAEDVRKLCPDCPLLAPLNDSRVVHAVEVALATFNAESNGSYLQLVEISRAQFVPLPVSVSVEFAVAATDCIAKEVVDPTKCNLLAEKQYGFCKGSVIQKALGGEDVRVTCTLFQTQPVIPQPQPDGAEAEAPSAVPDAAGPTPSAAGPPVASVVVGPSVVAVPLPLHRAHYDLRHTFSGVASVESSSGEAFHVGKTPIVGQPSIPGGPVRLCPGRIRYFKI
modifications: three N-linked and three O-linked glycans per molecule, with termini Neu5Ac(α2,3)Gal or Neu5Ac(α2,6)Gal
notes: fetuin, fetal bovine; source: bought: Calbiochem, EMD Chemicals (purity, 88%)
Take B2: the IC50 in assay [6] (both partners purified) was about 3 µM.

B3: svH1C, biotin-tagged tetravalent peptide [(…)2K]2K-ε-biotinyl-K-NH2 (peptide)
chain 1: NPSHPLSGGGGS
chain 2: KKKK(Biotin)-NH2
modifications: also: tetravalent branched: four NPSHPLSGGGGS arms on tri-lysine core joined by peptide and iso-peptide bonds
For B3, in assay [6], the binding constant estimated from the inhibition by fetuin is 1 µM and the streptavidin-peroxidase conjugate bound (average 100% value, without inhibitor) worked out at 2.4 ng.

The values above are taken from paper PMC4482410, “A Peptide Mimetic of 5-Acetylneuraminic Acid-Galactose Binds with High Avidity to Siglecs and NKG2D” (PLoS ONE, 2015).
